Measured values as given in patent publication US9718803B2 (AMGEN INC., priority 2010, dated 2017).
Where two headings read alike, the source gives them in different places.

Biological target: PDE10 enzyme
Assay: MPDE10A7 enzyme activity and inhibition (IMAP TR-FRET assay)
Format: biochemical
Method: MPDE10A7 Enzyme Activity and Inhibition
Enzyme Activity. An IMAP TR-FRET assay was used to analyze the enzyme activity (Molecular Devices Corp., Sunnyvale Calif.). 5 L of serial diluted PDE10A (BPS Bioscience, San Diego, Calif.) or tissue homogenate was incubated with equal volumes of diluted fluorescein labeled cAMP or cGMP for 60 min in 384-well polystyrene assay plates (Corning, Corning, N.Y.) at room temperature. After incubation, the reaction was stopped by adding 60 L of diluted binding reagents and was incubated for 3 hours to overnight at room temperature. The plates were read on an Envision (Perkin Elmer, Waltham, Mass.) for time resolved fluorescence resonance energy transfer. The data were analyzed with GraphPad Prism (La Jolla, Calif.).
Enzyme Inhibition. To check the inhibition profile, 5 μL of serial diluted compounds were incubated with 5 μL of diluted PDE10 enzyme (BPS Bioscience, San Diego, Calif.) or tissue homogenate in a 384-well polystyrene assay plate (Corning, Corning, N.Y.) for 30 min at room temperature. […] The reaction was stopped by adding 60 μL of diluted binding reagents and plates were read on an Envision (Perkin Elmer, Waltham, Mass.) for time resolved fluorescence resonance energy transfer. The data were analyzed with GraphPad Prism (La Jolla, Calif.).

| SMILES | IC50 (read-out: IC50) | IC50 (running text of examples, fluorescein labeled cAMP or cGMP substrate, read-out: PDE10 IC50) |
| --- | --- | --- |
| N#Cc1ccc(-c2nccnc2C2CN(c3ccc4ccccc4n3)C2)cc1 [Example 5.8, 4-(3-(1-(quinolin-2-yl)azetidin-3-yl)pyrazin-2-yl)benzonitrile] | 3 nM |  |
| O=C(O)c1cccc(-c2nccnc2C2CN(c3ccc4ccccc4n3)C2)c1 [Example 33.1, Lithium 3-(3-(1-(Quinolin-2-Yl)Azetidin-3-Yl)Pyrazin-2-Yl)Benzoate] |  | 1.6 nM |
